Assay results: patent US20250376474A1, “RET-LDD PROTEIN DEGRADERS” (Bristol-Myers Squibb Company, priority 2022, published 2025)

Target: T1, CCDC6-RET fusion expressing papillary thyroid carcinoma (TPC-1) cell line (Homo sapiens, UniProt P07949)
T1 construct: RET protein abundance (and therefore degradation) directly corresponds to luminescence intensity; CCDC6 (fusion partner, N-terminal part); endogenous in cells; host or cells: TPC-1 (papillary thyroid carcinoma), parental; the other entry of the earlier key: CCDC6 (Q16204, Coiled-coil domain-containing protein 6)
T1 sequence (P07949 with tags, fused parts or gaps): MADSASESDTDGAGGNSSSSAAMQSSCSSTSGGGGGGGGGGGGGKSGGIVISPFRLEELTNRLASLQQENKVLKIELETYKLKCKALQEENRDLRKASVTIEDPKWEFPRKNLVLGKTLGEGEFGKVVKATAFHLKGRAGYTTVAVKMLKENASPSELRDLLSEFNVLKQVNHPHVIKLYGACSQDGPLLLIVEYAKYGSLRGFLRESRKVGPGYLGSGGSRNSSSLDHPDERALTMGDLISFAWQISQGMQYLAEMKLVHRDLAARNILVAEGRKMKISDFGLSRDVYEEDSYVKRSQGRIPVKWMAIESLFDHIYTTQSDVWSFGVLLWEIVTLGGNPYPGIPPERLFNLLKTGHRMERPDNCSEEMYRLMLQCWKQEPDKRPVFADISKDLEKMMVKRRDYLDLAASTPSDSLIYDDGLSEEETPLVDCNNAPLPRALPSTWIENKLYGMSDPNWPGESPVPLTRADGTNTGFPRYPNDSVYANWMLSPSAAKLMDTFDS
Assay: Cellular RET degradation assay (AlphaLISA Surefire Ultra, tRET) in TPC-1/CCDC6-RET cells
Assay type: cell-based
Settings: TPC1, maximum % degradation (YMax) from 4-parameter logistic fit, parental TPC-1/CCDC6-RET cells, 24 hrs treatment, read-out: Cell Density TPC-1/CCDC6-RET YMax (%)
Method: Cellular RET degradation compound potency was determined using the bead-based luminescent amplification assay—AlphaLISA Surefire Ultra Detection Kit (Perkin-Elmer). The CCDC6-RET fusion expressing papillary thyroid carcinoma (TPC-1) cell line was selected for screening of potential degraders: Parental (TPC-1/CCDC6-RET). Cells were plated in 384 well culture plates (Greiner Bio-One) at 10,000 cells/well in 50ul/well DMEM (Fisher Scientific) with 2% FBS serum (Gibco). After cellular adhesion (4 hrs), cells were treated with compound by dispensing 25nl of serially diluted compound (1:3 dilution: 1 ipoint) directly into the cell culture wells using an Echo-655 acoustic liquid dispenser (Beckman). Low normalization wells were media only and high normalization wells were cells treated with DMSO only. Treated cell plates were placed in an incubator at 37C and 5% CO2 for 24 hrs. At 24 hrs, cell media was removed by a FELIX automated liquid hander (Analytik Jena) and 25ul of cell lysis buffer (provided in AlphaLisa kit) was added to each well. 5ul cell lysate were transferred into a 384-well microplate (Perkin Elmer) before addition of 2.5ul AlphaLISA Acceptor Bead mix. The plates were sealed and kept at room temperature for 1 hr before addition of donor bead mixture. Donor bead addition was performed in the dark and incubated for >1 hr before AlphaLISA luminescence was measured on an Envision plate reader with an Alphascreen aperture at RT (excitation 680 nm, emission 615 nm). RET protein abundance (and therefore degradation) directly corresponds to luminescence intensity.
Intensities were normalized relative to the average values from 16 wells containing media alone (blank-low) and 16 wells containing cells +DMSO (high). % Degradation for each well was determined using the standard equation, where
DC50 (IC50) values for each compound tested are calculated by analyzing plots of % degradation versus compound concentration, and fitting to the standard 4-parameter logistic curve where,
Top and bottom are the % degradation at infinitely large and infinitely small compound concentrations, respectively, while Halfmax is the compound concentration yielding % degradation corresponding tob½ Top-Bottom, and N is the Hill coefficient. DC50 values are calculated according to the relationship,
Compound replicates were performed in independent assays. Maximum degradation (YMax) was defined as the maximal % degradation value from the 4-parameter logistic equation, as previously described.
The half-maximal degradation concentration (DC50) and % degradation response (Ymax) are included in Table 3.

## COCc1ccc(NC(=O)c2c(C#CC3CCN(C(=O)CCCCN4CCN(c5ccc6c(c5)CN(C5CCC(=O)NC5=O)C6=O)CC4)CC3)c(C(C)C)n3ncnc(N)c23)cc1 (stereo not shown) [Example 5, 4-amino-6-((1-(5-(4-(2-(2,6-dioxopiperidin-3-yl)-1-oxoisoindolin-5-yl)piperazin-1-yl)pentanoyl)piperidin-4-yl)ethynyl)-7-isopropyl-N-(4-(methoxymethyl)phenyl)pyrrolo[2,1-f][1,2,4]triazine-5-carboxamide]
  Dmax: 79.9%

## COCc1ccc(NC(=O)c2c(C#CC3CCN(C(=O)CCCCN4CCC(c5ccc6c(c5)CN(C5CCC(=O)NC5=O)C6=O)CC4)CC3)c(C(C)C)n3ncnc(N)c23)cc1 (stereo not shown) [Example 8, 4-amino-6-((1-(5-(4-(2-(2,6-dioxopiperidin-3-yl)-1-oxoisoindolin-5-yl)piperidin-1-yl)pentanoyl)piperidin-4-yl)ethynyl)-7-isopropyl-N-(4-(methoxymethyl)phenyl)pyrrolo[2,1-f][1,2,4]triazine-5-carboxamide]
  Dmax: 86.3%

## COCc1ccc(NC(=O)c2c(C#CC3CCN(C(=O)CCCCCCN4CCC(c5ccc6c(c5)C(=O)N(C5CCC(=O)NC5=O)C6)CC4)CC3)c(C(C)C)n3ncnc(N)c23)cc1 (stereo not shown) [Example 4, 4-amino-6-((1-(7-(4-(2-(2,6-dioxopiperidin-3-yl)-3-oxoisoindolin-5-yl)piperidin-1-yl)heptanoyl)piperidin-4-yl)ethynyl)-7-isopropyl-N-(4-(methoxymethyl)phenyl)pyrrolo[2,1-f][1,2,4]triazine-5-carboxamide]
  Dmax: 97.6%

## COCc1ccc(NC(=O)c2c(C#CC3CCN(C(=O)CCCCCCN4CCN(c5ccc6c(c5)C(=O)N(C5CCC(=O)NC5=O)C6)CC4)CC3)c(C(C)C)n3ncnc(N)c23)cc1 (stereo not shown) [Example 3, 4-amino-6-((1-(7-(4-(2-(2,6-dioxopiperidin-3-yl)-3-oxoisoindolin-5-yl)piperazin-1-yl)heptanoyl)piperidin-4-yl)ethynyl)-7-isopropyl-N-(4-(methoxymethyl)phenyl)pyrrolo[2,1-f][1,2,4]triazine-5-carboxamide]
  Dmax: 91.8%

## COCc1ccc(NC(=O)c2c(C#CC3CCN(C(=O)CCN4CCC5(CC4)CCN(c4ccc6c(c4)CN(C4CCC(=O)NC4=O)C6=O)CC5)CC3)c(C(C)C)n3ncnc(N)c23)cc1 (stereo not shown) [Example 10, 4-amino-6-((1-(3-(9-(2-(2,6-dioxopiperidin-3-yl)-1-oxoisoindolin-5-yl)-3,9-diazaspiro[5.5]undecan-3-yl)propanoyl)piperidin-4-yl)ethynyl)-7-isopropyl-N-(4-(methoxymethyl)phenyl)pyrrolo[2,1-f][1,2,4]triazine-5-carboxamide]
  Dmax: 78.9%

## COCc1ccc(NC(=O)c2c(C#CC3CCN(C(=O)CN4CCC5(CC4)CCN(c4ccc6c(c4)CN(C4CCC(=O)NC4=O)C6=O)CC5)CC3)c(C(C)C)n3ncnc(N)c23)cc1 (stereo not shown) [Example 9, 4-amino-6-((1-(2-(9-(2-(2,6-dioxopiperidin-3-yl)-1-oxoisoindolin-5-yl)-3,9-diazaspiro[5.5]undecan-3-yl)acetyl)piperidin-4-yl)ethynyl)-7-isopropyl-N-(4-(methoxymethyl)phenyl)pyrrolo[2,1-f][1,2,4]triazine-5-carboxamide]
  Dmax: 79.1%

## COCc1ccc(NC(=O)c2c(C#CC3CCN(C(=O)CCCCN4CCN(c5ccc6c(c5)C(=O)N(C5CCC(=O)NC5=O)C6)CC4)CC3)c(C(C)C)n3ncnc(N)c23)cc1 (stereo not shown) [Example 6, 4-amino-6-((1-(5-(4-(2-(2,6-dioxopiperidin-3-yl)-3-oxoisoindolin-5-yl)piperazin-1-yl)pentanoyl)piperidin-4-yl)ethynyl)-7-isopropyl-N-(4-(methoxymethyl)phenyl)pyrrolo[2,1-f][1,2,4]triazine-5-carboxamide]
  Dmax: 97.3%

## COCc1ccc(NC(=O)c2c(C#CC3CCN(C(=O)CCCCCCN4CCC(c5ccc6c(c5)CN(C5CCC(=O)NC5=O)C6=O)CC4)CC3)c(C(C)C)n3ncnc(N)c23)cc1 (stereo not shown) [Example 2, 4-amino-6-((1-(7-(4-(2-(2,6-dioxopiperidin-3-yl)-1-oxoisoindolin-5-yl)piperidin-1-yl)heptanoyl)piperidin-4-yl)ethynyl)-7-isopropyl-N-(4-(methoxymethyl)phenyl)pyrrolo[2,1-f][1,2,4]triazine-5-carboxamide]
  Dmax: 87.4%

## COCc1ccc(NC(=O)c2c(C#CC3CCN(C(=O)CCCCCCN4CCN(c5ccc6c(c5)CN(C5CCC(=O)NC5=O)C6=O)CC4)CC3)c(C(C)C)n3ncnc(N)c23)cc1 (stereo not shown) [Example 1]
  Dmax: 84.5%

## COCc1ccc(NC(=O)c2c(C#CC3CCN(C(=O)CCCCN4CCC(c5ccc6c(c5)C(=O)N(C5CCC(=O)NC5=O)C6)CC4)CC3)c(C(C)C)n3ncnc(N)c23)cc1 (stereo not shown) [Example 7, 4-amino-6-((1-(5-(4-(2-(2,6-dioxopiperidin-3-yl)-3-oxoisoindolin-5-yl)piperidin-1-yl)pentanoyl)piperidin-4-yl)ethynyl)-7-isopropyl-N-(4-(methoxymethyl)phenyl)pyrrolo[2,1-f][1,2,4]triazine-5-carboxamide]
  Dmax: 90.1%
